Measurements as given in paper PMC10722499, “Consumption of Roasted Coffee Leads to Conjugated Metabolites of Atractyligenin in Human Plasma” (Journal of Agricultural and Food Chemistry, 2023).
Like-named read-outs stand apart in the source and are kept apart here.

Experiments:
[1] = Human coffee intervention study: plasma concentrations after roasted coffee brew by UPLC-MS/MS; assay type: in vivo; conditions: for concentration at 1 h / concentration at 4 h / concentration at 10 h / concentration at 0 h: human, plasma, 200 mL
Description: The study included ten volunteers (5 females, 5 males) (age: 28.3 ± 2.3 years; BMI: 21.89 ± 2.22 kg/m^2). The intervention study took place from November 5, 2021, to February 17, 2022, in the core facility human studies of the ZIEL Institute for Food and Health of the Technical University of Munich. The study was performed in agreement with the Declaration of Helsinki, and all participants gave written informed consent. The study was approved by the Ethics Committee of the Technical University of Munich (5798/13 S-SR) and registered in the German Register of Clinical Studies (DRKS00005083).
The study participants underwent a dietary protocol that excluded all forms of coffee consumption. Additionally, chocolate, black/green/white, mate tea, cola, energy drinks, and beauty products containing caffeine (e.g., shampoos, creams) were prohibited 1 week before the test day. Furthermore, the study participants received a standardized meal the evening before the test day. The meal was composed of pasta, margarine, and salt, and the amount of energy was calculated based on the participant’s basal energy demand. On the morning of the test day, the participants were in a fastened state and received water (control samples) or coffee brew (coffee intervention) as breakfast. Blood was sampled before coffee intake (0 h) and at defined time points (1, 4, and 10 h) after coffee intake. 6 h after the coffee intake, the participants received lunch, the same standardized meal as the previous dinner. The administered coffee was prepared from a coffee capsule (Nespresso, ROMA) with 100 mL water. The administered volume of the coffee brew was 200 mL. Based on the coffee powder per capsule ([…]), the concentrations of 2 (2.8 μmol/g) and 3 (1.1 μmol/g), respectively,[10] and an estimated extraction rate of 100%, the total ingested amounts were 33.6 μmol (2) and 13.2 μmol (3).
In an Eppendorf tube (1.5 mL), aliquots (50 μL each) of the calibration standard, sample, or QC, respectively, were mixed with the IS solution (1000 nM in ethanol, 50 μL) and acetonitrile/ethanol (9 + 1, v + v, 50 μL) was added. After vortexing, suspensions were cleared by centrifugation (12,000 rpm, 4 °C, 10 min), and the supernatant (∼100 μL) was transferred to an HPLC vial with 200 μL insert for analysis (5 μL injection).
The UPLC–MS/MS system consisted of a Shimadzu Nexera X2 UPLC system (Shimadzu, Duisburg, Germany) hyphenated to a QTrap 5500 MS/MS system (Sciex, Darmstadt, Germany) operating in negative electrospray (ESI^–) mode with the following ion source parameters: ion spray voltage: −4500 V; source temperature: 500 °C; nebulizer gas: 55 psi; heater gas: 65 psi; and curtain gas: 35 psi. The MS/MS parameters, including the collision cell entrance potential (CEP), declustering potential (DP), collision energy (CE), and cell exit potential (CXP), were tuned for each compound and mass transition and are summarized in Supporting Table S3. The dwell time for each compound was 30 ms, and the total cycle time was 0.75 s. Chromatographic separation was achieved on a C18 column (Kinetex C18, 100 mm × 2.1 mm, 1.7 μm, Phenomenex, Aschaffenburg, Germany) at a flow rate of 500 μL/min flow rate. Eluent A was 0.1% formic acid in water, and eluent B was 0.1% formic acid in acetonitrile. B was kept at 3% (1 min), increased to 25% (in 3 min), 90% (in 2 min, 1 min isocratic), and 3% (0.5 min, 2.5 min isocratic). The total time of the analysis was 10 min. The column effluent was introduced from the waste to the MS/MS system between 3 and 7 min.
We applied this method to human plasma samples from a coffee intervention study to investigate the appearance of coffee compounds 1–3 and metabolites M1–M3. Ten participants underwent a washout period (7 days) and then consumed one dose of […]. Blood samples were taken at baseline (0 h) and 1, 4, and 10 h after the intervention. […]

[2] = set-up: method as in PMID 36442242; conditions: coffee drinkers' urine, four of six samples, qualitative; cited from earlier work

CC1C(=O)C23CCC4C(C(=O)O)CC(OC5OC(C(=O)O)C(O)C(O)C5O)CC4(C)C2CCC1C3 [M3, 2β-hydroxy-15-oxoatractylan-4α-carboxylic acid-2-O-β-D-glucuronide]
plasma level at baseline ([1]; 0 h, before coffee intake, human plasma): below the LLOQ | plasma concentration in samples from two individuals ([1]; 10 h after coffee, comparatively high individual values): 180.0 nM | samples above the LLOQ ([1]; 10 h after coffee, n = 10): 90% | concentration at 1 h ([1]; both sexes, oral, 1 h after coffee brew (200 mL), human plasma, values above LLOQ, read-out: plasma concentration, mean ± SD): 1.7 nM | concentration at 4 h ([1]; both sexes, oral, 4 h after coffee brew (200 mL), human plasma, values above LLOQ, read-out: plasma concentration, mean ± SD): 1.3 ± 1.1 nM | concentration at 10 h ([1]; both sexes, oral, 10 h after coffee brew (200 mL), human plasma, values above LLOQ, read-out: plasma concentration, mean ± SD): 55 ± 57.7 nM | Cmax ([1]; both sexes, oral, human plasma after coffee brew (200 mL), n = 10, mean ± SD, read-out: estimated cmax in plasma): 55 ± 57.7 nM | time of estimated cmax ([1]; human plasma after coffee brew (200 mL), sampling only at 0, 1, 4, 10 h): 10 h | study participants in whom the conjugate appeared within 10 h after coffee ([1]; human plasma, n = 10): 90% | concentration at 10 h ([1]; oral, 10 h after coffee, comparatively high individual values, read-out: plasma concentration in samples from two individuals): 111 nM | concentration at 10 h ([1]; oral, participant cbdu, 10 h after coffee, read-out: plasma concentration, individual): 11.6 nM | concentration at 0 h ([1]; oral, participant eogo, 0 h, b = below LLOQ, read-out: plasma concentration, individual): 0.4 nM | concentration at 1 h ([1]; oral, participant eogo, 1 h after coffee, b = below LLOQ, read-out: plasma concentration, individual): 0.3 nM | concentration at 4 h ([1]; oral, participant eogo, 4 h after coffee, b = below LLOQ, read-out: plasma concentration, individual): 0.1 nM | concentration at 10 h ([1]; oral, participant eogo, 10 h after coffee, b = below LLOQ, read-out: plasma concentration, individual): 40.8 nM | concentration at 4 h ([1]; oral, participant ggot, 4 h after coffee, b = below LLOQ, read-out: plasma concentration, individual): 2.9 nM | concentration at 10 h ([1]; oral, participant ggot, 10 h after coffee, b = below LLOQ, read-out: plasma concentration, individual): 180 nM | concentration at 10 h ([1]; oral, participant imhz, 10 h after coffee, read-out: plasma concentration, individual): 9.3 nM | concentration at 10 h ([1]; oral, participant mgjj, 10 h after coffee, read-out: plasma concentration, individual): 24.3 nM | concentration at 4 h ([1]; oral, participant rrmk, 4 h after coffee, b = below LLOQ, read-out: plasma concentration, individual): 0.7 nM | concentration at 10 h ([1]; oral, participant rrmk, 10 h after coffee, read-out: plasma concentration, individual): 50.6 nM | concentration at 4 h ([1]; oral, participant wbqj, 4 h after coffee, b = below LLOQ, read-out: plasma concentration, individual): 0.9 nM | concentration at 10 h ([1]; oral, participant wbqj, 10 h after coffee, b = below LLOQ, read-out: plasma concentration, individual): 64.1 nM | concentration at 0 h ([1]; oral, participant wbvs, 0 h, b = below LLOQ, read-out: plasma concentration, individual): 0.9 nM | concentration at 1 h ([1]; oral, participant wbvs, 1 h after coffee, read-out: plasma concentration, individual): 1.7 nM | concentration at 4 h ([1]; oral, participant wbvs, 4 h after coffee, read-out: plasma concentration, individual): 1.9 nM | concentration at 10 h ([1]; oral, participant wbvs, 10 h after coffee, read-out: plasma concentration, individual): 111 nM | concentration at 10 h ([1]; oral, participant xrwz, 10 h after coffee, b = below LLOQ, read-out: plasma concentration, individual): 4.1 nM | urine samples in which detected [2]: 67%
